According to PubChem BioAssay AID256 (DTP/NCI, 2004):
Values joined by “and” are separate entries in the source; they are usually repeats but may differ in a detail not shown here. Equal entries are not always repeated. Toxic doses and inconclusive results are not listed. Rule for the calls: active = survival T/C of 150% or more; inactive = T/C below 125% in these data. Non-standard residues stand in square brackets, D forms with d. Residues, ends and D or L forms follow the SMILES beside them. ξ: configuration not given here. *: point of attachment. ξAsp(βξ-Me) = CC(C(=O)O)C(N)C(=O)O; X5 = CC(N*)C1NC(=O)C2CCCCN2C1=O; ξAbu(3ξ-NH2) = CC(N)C(N)C(=O)O; X4 = CCC(C)CCC/C=C/CC(=O)*

System: CD2F1 mice, L1210 leukemia ip, survival T/C
Experiment: NCI In Vivo Anticancer Drug Screen. Data for tumor model L1210 Leukemia (intraperitoneal) in CD2F1 (CDF1) mice
Details: higher = longer survival
Procedure, shortened: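 Read-out first: treated-group measurement over vehicle-control measurement, expressed as a ratio. Animals bore a transplanted tumor line and were dosed with compound or vehicle.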

[1] = endpoint: mean survival time, dose: 100.0 mg/kg/injection, schedule: Q01DX009 (ip), vehicle: saline with Tween-80
[2] = endpoint: mean survival time, dose: 100.0 mg/kg/injection, schedule: Q04DX002 (ip), vehicle: saline with Tween-80
[3] = endpoint: mean survival time, dose: 100.0 mg/kg/injection, schedule: Q04DX003 (ip), vehicle: saline with Tween-80
[4] = endpoint: mean survival time, dose: 200.0 mg/kg/injection, schedule: Q01DX009 (ip), vehicle: saline with Tween-80
[5] = endpoint: mean survival time, dose: 200.0 mg/kg/injection, schedule: Q04DX002 (ip), vehicle: saline with Tween-80
[6] = endpoint: mean survival time, dose: 200.0 mg/kg/injection, schedule: Q04DX003 (ip), vehicle: saline with Tween-80
[7] = endpoint: mean survival time, dose: 400.0 mg/kg/injection, schedule: Q01DX009 (ip), vehicle: saline with Tween-80
[8] = endpoint: mean survival time, dose: 400.0 mg/kg/injection, schedule: Q04DX002 (ip), vehicle: saline with Tween-80
[9] = endpoint: mean survival time, dose: 400.0 mg/kg/injection, schedule: Q04DX003 (ip), vehicle: saline with Tween-80
[10] = endpoint: mean survival time, dose: 50.0 mg/kg/injection, schedule: Q01DX009 (ip), vehicle: saline
[11] = endpoint: mean survival time, dose: 100.0 mg/kg/injection, schedule: Q04DX003 (ip), vehicle: saline
[12] = endpoint: mean survival time, dose: 200.0 mg/kg/injection, schedule: Q04DX003 (ip), vehicle: saline
[13] = endpoint: mean survival time, dose: 12.5 mg/kg/injection, schedule: Q01DX009 (ip), vehicle: saline with Tween-80
[14] = endpoint: mean survival time, dose: 25.0 mg/kg/injection, schedule: Q01DX009 (ip), vehicle: saline with Tween-80
[15] = endpoint: mean survival time, dose: 50.0 mg/kg/injection, schedule: Q01DX009 (ip), vehicle: saline with Tween-80

Measured: T/C

COc1ccc(OC)c(NC(=S)NC(=O)c2cccc(Br)c2)c1
inactive: endpoint: mean survival time, dose: 100.0 mg/kg/injection, schedule: Q01DX001 (ip), vehicle: saline with Tween-80 93 % of control | [1] 95 % of control and 96 % of control | [2] 94 % of control and 100 % of control | [3] 95 % of control | endpoint: mean survival time, dose: 200.0 mg/kg/injection, schedule: Q01DX001 (ip), vehicle: saline with Tween-80 88 % of control | [4] 95 % of control and 100 % of control | [5] 94 % of control and 100 % of control | [6] 91 % of control | endpoint: mean survival time, dose: 400.0 mg/kg/injection, schedule: Q01DX001 (ip), vehicle: saline with Tween-80 89 % of control | [7] 92 % of control and 100 % of control | [8] 89 % of control and 100 % of control | [9] 95 % of control

CN(C)C(=O)Sc1ccc(S(=O)(=O)F)c(Cl)c1Cl
inactive: [2] 100 % of control | [5] 100 % of control | [8] 103 % of control

CCCCOC(=O)c1ccccc1C(=O)O.CCCCOC(=O)c1ccccc1C(=O)O.[Cu+2]
inactive: endpoint: mean survival time, dose: 6.25 mg/kg/injection, schedule: Q04DX003 (ip), vehicle: saline with Tween-80 91 % of control | endpoint: mean survival time, dose: 12.5 mg/kg/injection, schedule: Q04DX003 (ip), vehicle: saline with Tween-80 95 % of control | endpoint: mean survival time, dose: 25.0 mg/kg/injection, schedule: Q04DX003 (ip), vehicle: saline with Tween-80 93 % of control

CSc1sc2ccccc2[n+]1C
inactive: endpoint: mean survival time, dose: 25.0 mg/kg/injection, schedule: Q01DX009 (ip), vehicle: saline 100 % of control | [10] 110 % of control

COc1ccc(CCNC(=O)CCN2C(=O)CCC2=O)cc1OC
inactive: [1] 98 % of control | endpoint: mean survival time, dose: 100.0 mg/kg/injection, schedule: Q04DX003 (ip), vehicle: saline sonified 101 % of control | [4] 96 % of control | endpoint: mean survival time, dose: 200.0 mg/kg/injection, schedule: Q04DX003 (ip), vehicle: saline sonified 101 % of control | [7] 100 % of control | endpoint: mean survival time, dose: 400.0 mg/kg/injection, schedule: Q04DX003 (ip), vehicle: saline sonified 98 % of control

CN(Cc1ccccc1)CC1(CO)CC=CCC1 (centres undefined)
inactive: endpoint: mean survival time, dose: 75.0 mg/kg/injection, schedule: Q01DX001 (ip), vehicle: saline 97 % of control | endpoint: mean survival time, dose: 150.0 mg/kg/injection, schedule: Q01DX001 (ip), vehicle: saline 100 % of control

O=c1[nH]c(=O)n(C2CC(O)C(CO)O2)cc1I (centres undefined)
inactive: endpoint: mean survival time, dose: 50.0 mg/kg/injection, schedule: Q01DX007 (ip), vehicle: saline 110 % of control | [10] 106 % of control | endpoint: mean survival time, dose: 50.0 mg/kg/injection, schedule: Q03DX003 (ip), vehicle: saline 104 % of control | endpoint: mean survival time, dose: 50.0 mg/kg/injection, schedule: Q04DX003 (ip), vehicle: saline 101 % of control | endpoint: mean survival time, dose: 100.0 mg/kg/injection, schedule: Q01DX007 (ip), vehicle: saline 117 % of control | endpoint: mean survival time, dose: 100.0 mg/kg/injection, schedule: Q01DX009 (ip), vehicle: saline 108 % of control | endpoint: mean survival time, dose: 100.0 mg/kg/injection, schedule: Q03DX003 (ip), vehicle: saline 107 % of control | [11] 106 % of control | endpoint: mean survival time, dose: 200.0 mg/kg/injection, schedule: Q01DX007 (ip), vehicle: saline 108 % of control | endpoint: mean survival time, dose: 200.0 mg/kg/injection, schedule: Q01DX009 (ip), vehicle: saline 111 % of control | endpoint: mean survival time, dose: 200.0 mg/kg/injection, schedule: Q03DX003 (ip), vehicle: saline 115 % of control | [12] 106 % of control | endpoint: mean survival time, dose: 500.0 mg/kg/injection, schedule: Q01DX009 (ip), vehicle: saline 107 % of control | endpoint: mean survival time, dose: 1000.0 mg/kg/injection, schedule: Q01DX009 (ip), vehicle: saline 103 % of control

O=C1COC(=O)N1
inactive: [3] 107 % of control | [6] 94 % of control | [9] 96 % of control

CN(C)C(SCc1ccccc1)=[N+](C)C
inactive: [2] 105 % of control | [5] 94 % of control

COC(=O)CC/C=C\Cc1c(OC)c(C)c2c(c1OC=O)C(=O)OC2
inactive: [2] 108 % of control | [5] 108 % of control | endpoint: median survival time, dose: 100.0 mg/kg/injection, schedule: Q04DX002 (ip), vehicle: saline with Tween-80 112 % of control | endpoint: median survival time, dose: 200.0 mg/kg/injection, schedule: Q04DX002 (ip), vehicle: saline with Tween-80 112 % of control

CCCCCCCCCCCCCCNC(=O)Nc1ccc(Cl)c(Cl)c1
inactive: endpoint: mean survival time, dose: 100.0 mg/kg/injection, schedule: Q04DX003 (ip), vehicle: other 89 % of control | endpoint: mean survival time, dose: 200.0 mg/kg/injection, schedule: Q04DX003 (ip), vehicle: other 86 % of control

CC1(C)CCC2(C)CCC3(C)C(=CCC4C5(C)CCC(O)C(C)(C)C5CCC43C)C2C1 (centres undefined)
inactive: [3] 98 % of control | [6] 90 % of control | [9] 91 % of control

CC[C@H](CC[C@@H](C)C1CC[C@H]2[C@@H]3CC=C4C[C@@H](OP(=O)(N5CC5)N5CC5)CC[C@]4(C)[C@H]3CC[C@]12C)C(C)C (some centres undefined)
inactive: [13] 97 % of control | [14] 92 % of control | [15] 93 % of control | [1] 92 % of control | [4] 108 % of control | [7] 97 % of control

O=c1c2cc[nH]c2ncn1C1OC(CO)C(O)C1O (centres undefined)
inactive: endpoint: mean survival time, dose: 12.5 mg/kg/injection, schedule: Q01DX005 (ip), vehicle: saline 96 % of control | endpoint: mean survival time, dose: 25.0 mg/kg/injection, schedule: Q01DX005 (ip), vehicle: saline 107 % of control

COc1cc(C)c(O)c(C[P+](c2ccccc2)(c2ccccc2)c2ccccc2)c1
inactive: [14] 98 % of control | [15] 94 % of control | endpoint: mean survival time, dose: 50.0 mg/kg/injection, schedule: Q04DX003 (ip), vehicle: saline with Tween-80 106 % of control | [3] 96 % of control

CC(=S)NC(O)C(=O)c1ccccc1 (centres undefined)
inactive: [13] 101 % of control | [14] 98 % of control | [15] 98 % of control | [1] 104 % of control | [4] 93 % of control | [7] 115 % of control

O=C1CC(c2ccc(Br)cc2)N(c2ccc([As](=O)(O)O)cc2)C1=O (centres undefined)
inactive: endpoint: mean survival time, dose: 6.25 mg/kg/injection, schedule: Q01DX009 (ip), vehicle: Klucel (hydroxypropylcellulose) (HPC) 95 % of control | endpoint: mean survival time, dose: 12.5 mg/kg/injection, schedule: Q01DX009 (ip), vehicle: Klucel (hydroxypropylcellulose) (HPC) 89 % of control | endpoint: median survival time, dose: 6.25 mg/kg/injection, schedule: Q04DX003 (ip), vehicle: saline with Tween-80 100 % of control | endpoint: median survival time, dose: 12.5 mg/kg/injection, schedule: Q04DX003 (ip), vehicle: saline with Tween-80 106 % of control | endpoint: median survival time, dose: 25.0 mg/kg/injection, schedule: Q04DX003 (ip), vehicle: saline with Tween-80 100 % of control

CC(C)SC(C(=O)O)(c1ccccc1)c1ccccc1
inactive: endpoint: mean survival time, dose: 75.0 mg/kg/injection, schedule: Q01DX001 (ip), vehicle: other 100 % of control | endpoint: mean survival time, dose: 150.0 mg/kg/injection, schedule: Q01DX001 (ip), vehicle: other 98 % of control | endpoint: mean survival time, dose: 300.0 mg/kg/injection, schedule: Q01DX001 (ip), vehicle: other 90 % of control

CCC(=O)c1cc2c(cc1CC)C(C)(C)CCC2(C)C
inactive: endpoint: mean survival time, dose: 50.0 mg/kg/injection, schedule: Q01DX001 (ip), vehicle: saline 93 % of control | endpoint: mean survival time, dose: 100.0 mg/kg/injection, schedule: Q01DX001 (ip), vehicle: saline 93 % of control | [11] 101 % of control | endpoint: mean survival time, dose: 200.0 mg/kg/injection, schedule: Q01DX001 (ip), vehicle: saline 93 % of control | [12] 97 % of control | endpoint: mean survival time, dose: 400.0 mg/kg/injection, schedule: Q01DX001 (ip), vehicle: saline 91 % of control | endpoint: mean survival time, dose: 400.0 mg/kg/injection, schedule: Q04DX003 (ip), vehicle: saline 90 % of control

CCCCCCCCCC[n+]1cccc(C(N)=O)c1
inactive: endpoint: mean survival time, dose: 5.0 mg/kg/injection, schedule: Q01DX009 (ip), vehicle: saline with Tween-80 97 % of control | endpoint: mean survival time, dose: 10.0 mg/kg/injection, schedule: Q01DX009 (ip), vehicle: saline with Tween-80 97 % of control | endpoint: mean survival time, dose: 20.0 mg/kg/injection, schedule: Q01DX009 (ip), vehicle: saline with Tween-80 100 % of control

CCC(C)CCC/C=C/CC(=O)NC(CC(=O)O)C(=O)NC(C(=O)NC(CC(=O)O)C(=O)NCC(=O)NC(CC(=O)O)C(=O)NCC(=O)NC(C(=O)NC(C(=O)N1CCCC1C(=O)NC(C)C1NC(=O)C2CCCCN2C1=O)C(C)C)C(C)N)C(C)C(=O)O (stereo not drawn) (X4-D[ξAsp(βξ-Me)]DGDG[ξAbu(3ξ-NH2)]VP-X5; configuration not given here)
inactive: endpoint: mean survival time, dose: 100.0 mg/kg/injection, schedule: Q01DX009 (ip), vehicle: saline + alcohol 93 % of control | endpoint: mean survival time, dose: 200.0 mg/kg/injection, schedule: Q01DX009 (ip), vehicle: saline + alcohol 87 % of control
